Here are results for 24 compounds from US4216221A, “1,3-Disubstituted (2-thio)ureas” (U C B, Societe Anonyme, priority 1977, dated 1980).

Like-named read-outs stand apart in the source and are kept apart here. A value given as a limit tells only on which side of the number the result lay.

The nature of data set [1]: Toxicity by intraperitoneal administration (Irwin's test). In kind it is in vivo. Conditions: for Dose mg/kg (dose which brings about the death of one animal out of eight in Irwin's test): mouse. The text has this: The compounds tested have a remarkably low toxicity.
*Dose which brings about the death of one animal out of eight in Irwin's
test (S. IRWIN, Gordon Research Conference on Medicinal Chemistry, Colby
Junior College, New London, 1959).

A short description of data set [2]: Protection against aggressions of the hypoxic type (mortality induced by oxydipentonium chloride). The format is in vivo, mice. Conditions: Mus musculus, ip, 1 h, mice, intraperitoneal, one hour before the curarizer, 2/10 (28), read-out: Proportion of survivors, Animals treated; for responders at 100 µM, 100 µmol/kg: 0.1 mM/kg, control animals 3/20 (1), 1/10 (2, 18, 26), 0/10 (14, 32); for responders at 320 µM, 320 µmol/kg: 0.32 mM/kg, control animals 1/10 (18), 0/10 (32, piracetam). As to the method:
Protection against aggressions of the hypoxic type was shown by a reduction of mortality induced by a curarizer, the action time of which is short, namely oxydipentonium chloride (Brevatonal). At the doses used, this curarizer brings about respiratory depression which, in turn, gives rise to a hypoxi-hypercapnic syndrome.
A compound capable of protecting the brain during this short period of hypoxia ensures survival. The compounds are administered to groups of 10 mice one hour before the injection of the curarizer. At the same time, a control group of 10 mice received physiological salt solution before the curarizer. This test has also been developed in our laboratories (see S. LEVIS et al., Arch.Int.Pharmacodyn.Therap.93, (1953,no. 1), 46-54).

Data set [3] in a line: active avoidance test (memory retention; paw withdrawal reaction threshold). In kind it is in vivo, rat. The following applies: sc, rat, subcutaneous, tested 24 hours later. The text has this: The pressure at which the withdrawal reaction takes place is called the reaction threshold. This threshold is expressed by the figure read on a scale graduated in cm of the apparatus used (Analgesy-meter Ugo Basile, Milan) and thus corresponds to the minimum pressure which brings about withdrawal when applied to the animal's paw.

Where [4] appears, read: read-out: Active dose mM/kg (minimum dose lowering the stimulus below 11 graduations; mM = millimole).
Setting [5] is: read-out: Active dose mg/kg (minimum dose lowering the stimulus below 11 graduations).

For the compound `CC1CC2(CCCCC2)C(=O)N1CNC(=O)NCN1CCCC1=O` (stereo not drawn) [compound 31, 1-[(3-methyl-1-oxo-azaspiro[4.5]dec-2-yl)methyl]-3-[(2-oxo-pyrrolidino)-methyl]-urea], in data set [1], the “Dose mM/kg - mouse (dose which brings about the death of one animal out of eight in Irwin's test)” value (“Dose mM/kg - mouse” for short) was 2 mM/kg and the “Dose mg/kg (dose which brings about the death of one animal out of eight in Irwin's test)” value (“Dose mg/kg” for short) was 672.8 mg/kg.
For the compound `O=C(NC(c1ccccc1)N1CCCC1=O)NC(c1ccccc1)N1CCCC1=O` (stereo not drawn) [compound 19, 1,3-bis[alpha-(2-oxo-pyrrolidino)-benzyl]-urea], in data set [1], the “Dose mM/kg - mouse” value is reported as more than 3 mM/kg and the “Dose mg/kg” value is more than 1219 mg/kg.
On to `CCC(NC(=O)NC(CC)N1CCCC1=O)N1CCCC1=O` (stereo not drawn) [Compound No. 10, 1,3-bis[1-(2-oxo-pyrrolidino)propyl]-urea], for which, in data set [1], the “Dose mM/kg - mouse” value was more than 3 mM/kg and the “Dose mg/kg” value is more than 930 mg/kg.
As for `CC1CC(C)(C)N(CNC(=O)NCN2C(=O)C(C)CC2(C)C)C1=O` (stereo not drawn) [compound 18, 1,3-bis[(3,5,5-trimethyl-2-oxo-pyrrolidino)methyl]-urea], in data set [2], the responders at 100 µM, 100 µmol/kg was 20% and the responders at 320 µM, 320 µmol/kg is 60%. For the same compound, in data set [1], the “Dose mM/kg - mouse” value is reported as 2 mM/kg and the “Dose mg/kg” value is given as 676.8 mg/kg.
For `O=C1CCCCCN1CNC(=S)NCN1CCCC1=O` [compound 28, 1-[(hexahydro-2-oxo-1H-azepin-1-yl)methyl]-3-[(2-oxo-pyrrolidino)methyl]-2-thiourea], in data set [2], the responders at 100 µM, 100 µmol/kg came to 20% and the responders at 320 µM, 320 µmol/kg turned out to be 70%. Moreover, in data set [1], the “Dose mM/kg - mouse” value is 3 mM/kg and the “Dose mg/kg” value was 894 mg/kg.
For `O=C(NCN1CCCCCCCC1=O)NCN1CCCC1=O` [Compound No. 29, 1-[(octahydro-2-oxo-1H-azonin-1-yl)methyl]-3-[(2-oxo-pyrrolidino)methyl]-urea], in data set [1], the “Dose mM/kg - mouse” value is reported as 2 mM/kg and the “Dose mg/kg” value is 620 mg/kg.
Consider `O=C(NCN1CC(c2ccccc2)CC1=O)NCN1CC(c2ccccc2)CC1=O` (stereo not drawn) [compound 12, 1,3-bis[(2-oxo-4-phenyl-pyrrolidino)methyl]-urea], for which, in data set [1], the “Dose mM/kg - mouse” value is more than 3 mM/kg and the “Dose mg/kg” value worked out at 1215 mg/kg.
In the case of `CCCCC1CCN(CNC(=S)NCN2CCC(CCCC)C2=O)C1=O` (stereo not drawn) [compound 26, 1,3-bis[(3-n-butyl-2-oxo-pyrrolidino)methyl]-2-thiourea], the responders at 100 µM, 100 µmol/kg in data set [2] came to 70%. In data set [1], the “Dose mM/kg - mouse” value is reported as more than 2 mM/kg and the “Dose mg/kg” value is recorded as more than 765.2 mg/kg.
As to `O=C1CCCN1CNC(=S)NCN1CCCC1=O` [compound 25, 1,3-bis[(2-oxo-pyrrolidino)methyl]-2-thiourea], the minimal effective dose was 1 µmol/kg in data set [3] (setting [4]) and 0.268 mg/kg in data set [3] (setting [5]). Further, in data set [1], the “Dose mM/kg - mouse” value is reported as more than 3 mM/kg. Besides, in data set [1], the “Dose mg/kg” value is recorded as more than 804 mg/kg.
Consider `O=C(NCN1CCCCCC1=O)NCN1CCCC1=O` [compound 32, 1-[(hexahydro-2-oxo-1H-azepin-1-yl)methyl]-3-[(2-oxo-pyrrolidino)methyl]-urea], for which, in data set [2], the responders at 100 µM, 100 µmol/kg is 30% and the responders at 320 µM, 320 µmol/kg was 60%. Moreover, in data set [1], the “Dose mM/kg - mouse” value is given as more than 3 mM/kg and the “Dose mg/kg” value was more than 846 mg/kg.
In the case of `O=C(NCN1CCCCCCC1=O)NCN1CCCC1=O` [compound 33, 1-[(hexahydro-2-oxo-1(2H)-azocinyl)methyl]-3-[(2-oxo-pyrrolidino)methyl]-urea], the minimal effective dose in data set [3] (setting [4]) amounted to 5 µmol/kg. Further, the minimal effective dose in data set [3] (setting [5]) is 1.48 mg/kg. Also, in data set [1], the “Dose mM/kg - mouse” value is more than 3 mM/kg and the “Dose mg/kg” value is reported as more than 888 mg/kg.
On to `O=C1CCCCCN1CNC(=S)NCN1CCCCCC1=O` [compound 36, 1,3-bis[(hexahydro-2-oxo-1H-azepin-1-yl)methyl]-2-thiourea], for which the minimal effective dose in data set [3] (setting [4]) is 0.2 µmol/kg; in data set [3] (setting [5]), 0.065 mg/kg.
On to `C=CCC1(c2ccccc2)CCN(CNC(=O)NCN2CCC(CC=C)(c3ccccc3)C2=O)C1=O` (stereo not drawn) [compound 15, 1,3-bis[(3-allyl-2-oxo-3-phenyl-pyrrolidino)methyl]-urea], for which the minimal effective dose in data set [3] (setting [4]) came to 1 µmol/kg. Also, in data set [3] (setting [5]), the minimal effective dose amounted to 0.486 mg/kg. For the same compound, in data set [1], the “Dose mM/kg - mouse” value is more than 3 mM/kg and the “Dose mg/kg” value was 1459.5 mg/kg.
Consider `O=C(NCN1CCCCC1=O)NCN1CCCCC1=O` [Compound No. 3, 1,3-bis[(2-oxo-piperidino)methyl]-urea], for which the minimal effective dose in data set [3] (setting [4]) worked out at 0.2 µmol/kg; in data set [3] (setting [5]), 0.056 mg/kg.
As to `CC(CNC(=O)NCC(C)N1CCCC1=O)N1CCCC1=O` (stereo not drawn) [compound 21, 1,3-bis[2-(2-oxo-pyrrolidino)propyl]-urea], in data set [3] (setting [4]), the minimal effective dose came to 0.01 µmol/kg. The minimal effective dose in data set [3] (setting [5]) amounted to 0.0031 mg/kg. For the same compound, in data set [1], the “Dose mM/kg - mouse” value is reported as more than 3 mM/kg and the “Dose mg/kg” value is reported as more than 930 mg/kg.
As to `O=C(NCN1CCCCCCC1=O)NCN1CCCCCCC1=O` [Compound No. 5, 1,3bis[(hexahydro-2-oxo-1(2H)-azocinyl)methyl]-urea], the minimal effective dose was determined as 1 µmol/kg in data set [3] (setting [4]) and 0.338 mg/kg in data set [3] (setting [5]). The “Dose mM/kg - mouse” value in data set [1] came to 3 mM/kg. Further, in data set [1], the “Dose mg/kg” value came out at 1004 mg/kg.
Consider `O=C(NCN1C(=O)CCC1c1ccccc1)NCN1C(=O)CCC1c1ccccc1` (stereo not drawn) [Compound No. 9, 1,3-bis[(2-oxo-5-phenyl-pyrrolidino)methyl]-urea], for which, in data set [1], the “Dose mM/kg - mouse” value worked out at 1 mM/kg and the “Dose mg/kg” value was found to be 406 mg/kg.
For `O=C(NCN1CCCCCCCC1=O)NCN1CCCCCCCC1=O` [Compound No. 6, 1,3-bis[(octahydro-2-oxo-1H-azonin-1-yl)methyl]-urea], the minimal effective dose in data set [3] (setting [4]) is 5 µmol/kg. Also, the minimal effective dose in data set [3] (setting [5]) turned out to be 1.83 mg/kg. Further, in data set [1], the “Dose mM/kg - mouse” value is listed as more than 3 mM/kg and the “Dose mg/kg” value was found to be 1099.5 mg/kg.
In the case of `CC1CC2(CCCCC2)C(=O)N1CNC(=O)NCN1C(=O)C2(CCCCC2)CC1C` (stereo not drawn) [compound 17, 1,3-bis[(3-methyl-1-oxo-2-azaspiro[4.5]dec-2-yl)methyl]-urea], in data set [1], the “Dose mM/kg - mouse” value is recorded as 3 mM/kg and the “Dose mg/kg” value is 1255.8 mg/kg.
The like results for `O=C(NCN1CC(c2ccc(Cl)cc2)CCC1=O)NCN1CC(c2ccc(Cl)cc2)CCC1=O` (stereo not drawn) [compound 16, 1,3-bis[(5-p-chlorophenyl-2-oxo-piperidino)methyl]-urea] were, in that order, more than 3 mM/kg and 1510.2 mg/kg.
For `CCCCC1CCN(CNC(=S)NCN2CCC(CCCC)C2=O)C1=O` (stereo not drawn) [compound 27, 1,3-bis[(3-n-butyl-2-oxo-pyrrolidino)methyl]-2-thiourea], the figures for the minimal effective dose in data set [3] (setting [4]) and in data set [3] (setting [5]) were 0.01 µmol/kg and 0.0038 mg/kg, respectively.
For `CC1(C)CCC(=O)N1CNC(=O)NCN1C(=O)CCC1(C)C` [compound 35, 1,3bis[(5,5-dimethyl-2-oxo-pyrrolidine)methyl]-urea], the minimal effective dose in data set [3] (setting [4]) was found to be 0.02 µmol/kg. Besides, the minimal effective dose in data set [3] (setting [5]) came out at 0.0062 mg/kg. Besides, in data set [1], the “Dose mM/kg - mouse” value is on record as more than 3 mM/kg and the “Dose mg/kg” value is more than 930 mg/kg.
Turning to `CCCCC1CCN(CNC(=O)NCN2CCC(CCCC)C2=O)C1=O` (stereo not drawn) [compound 30, 1,3-bis[(3-n-butyl-2-oxo-pyrrolidino)methyl]-urea], in data set [1], the “Dose mM/kg - mouse” value is more than 3 mM/kg and the “Dose mg/kg” value is recorded as more than 10009.5 mg/kg.
As for `CCC1(c2ccccc2)CCN(CNC(=O)NCN2CCC(CC)(c3ccccc3)C2=O)C1=O` (stereo not drawn) [compound 13, 1,3-bis[(3-ethyl-2-oxo-3-phenyl-pyrrolidino)methyl]-urea], in data set [1], the “Dose mM/kg - mouse” value is recorded as more than 3 mM/kg and the “Dose mg/kg” value is listed as 1387.5 mg/kg.
